Results taken from ChEMBL document CHEMBL4507269, “Data for DCP probe BAY-386” (2021).

Key:
[1] = target: T1, Adenosine receptor A3 (Homo sapiens) (UniProt P0DMS8); assay: A3 (h) Eurofins-Cerep Cellular and Nuclear Receptor Functional Assays; conditions: Compound concentration 10.0 uM
T1 sequence (whole entry): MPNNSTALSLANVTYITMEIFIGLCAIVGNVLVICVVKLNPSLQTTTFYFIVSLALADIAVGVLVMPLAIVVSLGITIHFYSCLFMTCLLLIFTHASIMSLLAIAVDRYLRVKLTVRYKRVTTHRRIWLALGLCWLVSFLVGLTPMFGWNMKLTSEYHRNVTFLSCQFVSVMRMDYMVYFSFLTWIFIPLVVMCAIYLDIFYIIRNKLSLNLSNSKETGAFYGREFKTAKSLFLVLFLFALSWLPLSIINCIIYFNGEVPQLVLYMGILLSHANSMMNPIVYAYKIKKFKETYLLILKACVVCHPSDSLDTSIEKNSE

[2] = target: Calcium/calmodulin-dependent protein kinase type 1D (Homo sapiens) (UniProt Q8IU85); conditions: Compound concentration 1000.0 nM
[3] = target: Casein kinase I isoform gamma-1 (Homo sapiens) (UniProt Q9HCP0); conditions: Compound concentration 1000.0 nM
[4] = target: Mitogen-activated protein kinase kinase kinase 12 (Homo sapiens) (UniProt Q12852); conditions: Compound concentration 1000.0 nM
[5] = target: Ephrin type-A receptor 1 (Homo sapiens) (UniProt P21709); conditions: Compound concentration 1000.0 nM
[6] = target: Ephrin type-A receptor 5 (Homo sapiens) (UniProt P54756); conditions: Compound concentration 1000.0 nM
[7] = target: Ephrin type-A receptor 7 (Homo sapiens) (UniProt Q15375); conditions: Compound concentration 1000.0 nM
[8] = target: Ephrin type-B receptor 2 (Homo sapiens) (UniProt P29323); conditions: Compound concentration 1000.0 nM
[9] = target: Mitogen-activated protein kinase 3 (Homo sapiens) (UniProt P27361); conditions: Compound concentration 1000.0 nM
[10] = tested on: Receptor-type tyrosine-protein kinase FLT3 (Homo sapiens), P36888 [R834Q]; conditions: Compound concentration 1000.0 nM
[11] = target: Homeodomain-interacting protein kinase 3 (Homo sapiens) (UniProt Q9H422); conditions: Compound concentration 1000.0 nM
[12] = target: Serine/threonine-protein kinase ICK (Homo sapiens) (UniProt Q9UPZ9); conditions: Compound concentration 1000.0 nM
[13] = target: Insulin-like growth factor 1 receptor (Homo sapiens) (UniProt P08069); conditions: Compound concentration 1000.0 nM
[14] = target: Insulin receptor (Homo sapiens) (UniProt P06213); conditions: Compound concentration 1000.0 nM
[15] = target: Mitogen-activated protein kinase 8 (Homo sapiens) (UniProt P45983); conditions: Compound concentration 1000.0 nM
[16] = tested on: Mast/stem cell growth factor receptor Kit (Homo sapiens), P10721 [A829P]; conditions: Compound concentration 1000.0 nM
[17] = target: Serine/threonine-protein kinase LATS1 (Homo sapiens) (UniProt O95835); conditions: Compound concentration 1000.0 nM
[18] = target: MAP kinase-activated protein kinase 5 (Homo sapiens) (UniProt Q8IW41); conditions: Compound concentration 1000.0 nM
[19] = target: Dual specificity mitogen-activated protein kinase kinase 5 (Homo sapiens) (UniProt Q13163); conditions: Compound concentration 1000.0 nM
[20] = target: Mitogen-activated protein kinase kinase kinase 11 (Homo sapiens) (UniProt Q16584); conditions: Compound concentration 1000.0 nM
[21] = target: Serine/threonine-protein kinase Nek11 (Homo sapiens) (UniProt Q8NG66); conditions: Compound concentration 1000.0 nM
[22] = target: Mitogen-activated protein kinase 12 (Homo sapiens) (UniProt P53778); conditions: Compound concentration 1000.0 nM
[23] = target: Cyclin-dependent kinase 2 homolog (Plasmodium falciparum (isolate 3D7)) (UniProt P61075); conditions: Compound concentration 1000.0 nM
[24] = tested on: Phosphatidylinositol 4,5-bisphosphate 3-kinase catalytic subunit alpha isoform (Homo sapiens), P42336 [Q546K]; conditions: Compound concentration 1000.0 nM
[25] = target: Serine/threonine-protein kinase pim-3 (Homo sapiens) (UniProt Q86V86); conditions: Compound concentration 1000.0 nM
[26] = target: cAMP-dependent protein kinase catalytic subunit alpha (Homo sapiens) (UniProt P17612); conditions: Compound concentration 1000.0 nM
[27] = target: Serine/threonine-protein kinase PknB (Mycobacterium tuberculosis) (UniProt P9WI81); conditions: Compound concentration 1000.0 nM
[28] = target: Serine/threonine-protein kinase PLK3 (Homo sapiens) (UniProt Q9H4B4); conditions: Compound concentration 1000.0 nM
[29] = target: Serine/threonine-protein kinase D1 (Homo sapiens) (UniProt Q15139); conditions: Compound concentration 1000.0 nM
[30] = target: cAMP-dependent protein kinase catalytic subunit PRKX (Homo sapiens) (UniProt P51817); conditions: Compound concentration 1000.0 nM
[31] = target: Serine/threonine-protein kinase SIK1 (Homo sapiens) (UniProt P57059); conditions: Compound concentration 1000.0 nM
[32] = target: Angiopoietin-1 receptor (Homo sapiens) (UniProt Q02763); conditions: Compound concentration 1000.0 nM
[33] = target: Non-receptor tyrosine-protein kinase TYK2 (Homo sapiens) (UniProt P29597); conditions: Compound concentration 1000.0 nM
[34] = target: Tyrosine-protein kinase receptor TYRO3 (Homo sapiens) (UniProt Q06418); conditions: Compound concentration 1000.0 nM
[35] = target: Phosphatidylinositol 3-kinase catalytic subunit type 3 (Homo sapiens) (UniProt Q8NEB9); conditions: Compound concentration 1000.0 nM
[36] = target: Serine/threonine-protein kinase WNK1 (Homo sapiens) (UniProt Q9H4A3); conditions: Compound concentration 1000.0 nM
[37] = target: Mitogen-activated protein kinase kinase kinase 20 (Homo sapiens) (UniProt Q9NYL2); conditions: Compound concentration 1000.0 nM
[38] = target: 5-hydroxytryptamine receptor 2B (Homo sapiens) (UniProt P41595); conditions: Compound concentration 10.0 uM
[39] = target: Histamine H3 receptor (Homo sapiens) (UniProt Q9Y5N1); conditions: Compound concentration 10.0 uM
[40] = target: Histamine H4 receptor (Homo sapiens) (UniProt Q9H3N8); conditions: Compound concentration 10.0 uM

Chain of Insulin-like growth factor 1 receptor (Homo sapiens) (P08069 31-736 limits assumed): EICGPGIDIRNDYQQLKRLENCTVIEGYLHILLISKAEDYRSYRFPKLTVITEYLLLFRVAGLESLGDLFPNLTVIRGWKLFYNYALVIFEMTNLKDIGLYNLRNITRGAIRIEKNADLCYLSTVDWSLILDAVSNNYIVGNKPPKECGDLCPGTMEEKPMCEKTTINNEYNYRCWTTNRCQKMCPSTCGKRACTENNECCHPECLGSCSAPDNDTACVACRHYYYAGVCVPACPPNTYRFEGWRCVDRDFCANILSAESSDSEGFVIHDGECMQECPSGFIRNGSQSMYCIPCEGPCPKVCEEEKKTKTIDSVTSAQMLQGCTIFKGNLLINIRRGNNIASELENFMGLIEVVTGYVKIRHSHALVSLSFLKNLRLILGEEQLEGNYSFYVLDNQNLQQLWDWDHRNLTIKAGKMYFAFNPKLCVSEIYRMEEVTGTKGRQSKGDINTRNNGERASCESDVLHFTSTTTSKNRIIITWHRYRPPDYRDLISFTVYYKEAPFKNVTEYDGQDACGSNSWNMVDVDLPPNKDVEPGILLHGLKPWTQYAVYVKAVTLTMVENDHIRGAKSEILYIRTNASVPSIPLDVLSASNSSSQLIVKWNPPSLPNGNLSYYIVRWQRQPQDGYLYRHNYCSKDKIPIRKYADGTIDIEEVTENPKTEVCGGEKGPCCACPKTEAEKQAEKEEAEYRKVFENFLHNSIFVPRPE
Chain of Insulin-like growth factor 1 receptor (Homo sapiens) (P08069 741-1367 limits assumed): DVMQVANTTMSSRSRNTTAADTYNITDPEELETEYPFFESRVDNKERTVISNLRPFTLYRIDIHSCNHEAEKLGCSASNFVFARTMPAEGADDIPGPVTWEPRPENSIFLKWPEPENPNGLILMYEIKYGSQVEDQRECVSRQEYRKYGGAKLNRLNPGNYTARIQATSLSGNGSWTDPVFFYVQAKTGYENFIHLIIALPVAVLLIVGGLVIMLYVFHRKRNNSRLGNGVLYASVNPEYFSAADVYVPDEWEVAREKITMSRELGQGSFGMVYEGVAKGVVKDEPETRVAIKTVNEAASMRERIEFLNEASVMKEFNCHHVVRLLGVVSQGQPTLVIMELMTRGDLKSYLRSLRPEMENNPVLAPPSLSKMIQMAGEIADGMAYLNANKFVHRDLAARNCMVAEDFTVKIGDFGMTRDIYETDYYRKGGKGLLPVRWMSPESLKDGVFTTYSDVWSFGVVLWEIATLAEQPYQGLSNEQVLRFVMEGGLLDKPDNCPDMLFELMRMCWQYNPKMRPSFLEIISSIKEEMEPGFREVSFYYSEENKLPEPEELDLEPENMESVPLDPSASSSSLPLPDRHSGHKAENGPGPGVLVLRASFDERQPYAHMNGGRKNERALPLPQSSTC
Chain of Serine/threonine-protein kinase WNK1 (Homo sapiens) (Q9H4A3 whole entry, looked up): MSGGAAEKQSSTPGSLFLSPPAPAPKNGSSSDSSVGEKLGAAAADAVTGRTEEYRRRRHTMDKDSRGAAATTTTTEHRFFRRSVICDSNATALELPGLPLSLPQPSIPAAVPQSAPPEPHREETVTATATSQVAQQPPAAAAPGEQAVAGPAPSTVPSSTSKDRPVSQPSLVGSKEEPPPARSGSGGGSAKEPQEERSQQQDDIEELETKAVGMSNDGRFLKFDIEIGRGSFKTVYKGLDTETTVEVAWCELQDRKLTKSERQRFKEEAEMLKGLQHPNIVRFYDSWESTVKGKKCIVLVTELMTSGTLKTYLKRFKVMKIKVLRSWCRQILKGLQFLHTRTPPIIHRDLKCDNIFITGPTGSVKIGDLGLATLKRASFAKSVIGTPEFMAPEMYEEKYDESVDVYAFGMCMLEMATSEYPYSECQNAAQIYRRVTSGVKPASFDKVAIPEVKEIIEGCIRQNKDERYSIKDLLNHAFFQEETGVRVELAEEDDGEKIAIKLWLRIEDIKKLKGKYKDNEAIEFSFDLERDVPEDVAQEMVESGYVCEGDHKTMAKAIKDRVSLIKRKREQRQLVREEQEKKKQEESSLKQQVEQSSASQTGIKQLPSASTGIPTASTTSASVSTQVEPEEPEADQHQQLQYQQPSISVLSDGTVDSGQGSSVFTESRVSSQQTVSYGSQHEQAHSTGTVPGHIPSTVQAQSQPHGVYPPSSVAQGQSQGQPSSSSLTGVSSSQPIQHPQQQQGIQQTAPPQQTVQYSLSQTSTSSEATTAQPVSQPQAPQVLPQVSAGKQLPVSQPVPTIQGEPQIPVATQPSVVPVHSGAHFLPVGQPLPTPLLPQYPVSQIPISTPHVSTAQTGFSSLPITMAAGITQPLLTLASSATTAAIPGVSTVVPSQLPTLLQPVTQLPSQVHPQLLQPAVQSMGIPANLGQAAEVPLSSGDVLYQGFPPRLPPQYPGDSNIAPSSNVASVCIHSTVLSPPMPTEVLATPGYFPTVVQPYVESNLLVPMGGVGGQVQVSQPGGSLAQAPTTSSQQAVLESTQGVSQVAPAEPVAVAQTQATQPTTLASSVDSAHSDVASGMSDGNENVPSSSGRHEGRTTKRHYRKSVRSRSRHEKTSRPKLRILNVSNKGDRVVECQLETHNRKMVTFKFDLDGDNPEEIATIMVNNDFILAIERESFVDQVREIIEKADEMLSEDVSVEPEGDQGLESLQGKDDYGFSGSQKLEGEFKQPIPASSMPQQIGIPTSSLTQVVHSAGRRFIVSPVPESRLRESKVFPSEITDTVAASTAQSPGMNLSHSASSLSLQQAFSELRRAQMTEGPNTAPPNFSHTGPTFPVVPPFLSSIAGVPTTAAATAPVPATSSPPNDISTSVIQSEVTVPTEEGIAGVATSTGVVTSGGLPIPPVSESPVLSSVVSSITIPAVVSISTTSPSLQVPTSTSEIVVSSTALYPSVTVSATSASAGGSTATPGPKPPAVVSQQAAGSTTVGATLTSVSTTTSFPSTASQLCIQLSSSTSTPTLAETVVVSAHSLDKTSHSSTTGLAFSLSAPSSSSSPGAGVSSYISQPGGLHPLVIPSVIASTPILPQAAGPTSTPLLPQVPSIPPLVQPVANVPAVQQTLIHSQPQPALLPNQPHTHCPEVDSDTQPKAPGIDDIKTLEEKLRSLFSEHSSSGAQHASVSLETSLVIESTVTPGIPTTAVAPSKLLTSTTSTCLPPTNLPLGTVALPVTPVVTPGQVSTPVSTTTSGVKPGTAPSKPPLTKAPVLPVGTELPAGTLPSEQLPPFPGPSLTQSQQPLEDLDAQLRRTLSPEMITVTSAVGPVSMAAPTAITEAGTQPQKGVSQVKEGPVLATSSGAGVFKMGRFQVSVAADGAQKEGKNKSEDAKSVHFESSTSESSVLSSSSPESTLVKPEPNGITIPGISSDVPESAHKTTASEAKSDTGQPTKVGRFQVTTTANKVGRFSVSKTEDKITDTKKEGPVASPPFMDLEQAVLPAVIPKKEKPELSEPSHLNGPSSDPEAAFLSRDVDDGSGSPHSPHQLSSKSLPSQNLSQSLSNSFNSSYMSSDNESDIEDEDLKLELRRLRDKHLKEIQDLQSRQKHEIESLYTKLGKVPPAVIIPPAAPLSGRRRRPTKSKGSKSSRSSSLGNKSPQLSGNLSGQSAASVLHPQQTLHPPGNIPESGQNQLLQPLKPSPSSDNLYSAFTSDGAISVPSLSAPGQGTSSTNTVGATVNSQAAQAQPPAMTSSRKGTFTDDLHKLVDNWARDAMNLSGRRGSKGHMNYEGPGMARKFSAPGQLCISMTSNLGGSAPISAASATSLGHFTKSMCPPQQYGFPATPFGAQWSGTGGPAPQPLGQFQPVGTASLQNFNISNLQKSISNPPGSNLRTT
Chain of Non-receptor tyrosine-protein kinase TYK2 (Homo sapiens) (P29597 whole entry): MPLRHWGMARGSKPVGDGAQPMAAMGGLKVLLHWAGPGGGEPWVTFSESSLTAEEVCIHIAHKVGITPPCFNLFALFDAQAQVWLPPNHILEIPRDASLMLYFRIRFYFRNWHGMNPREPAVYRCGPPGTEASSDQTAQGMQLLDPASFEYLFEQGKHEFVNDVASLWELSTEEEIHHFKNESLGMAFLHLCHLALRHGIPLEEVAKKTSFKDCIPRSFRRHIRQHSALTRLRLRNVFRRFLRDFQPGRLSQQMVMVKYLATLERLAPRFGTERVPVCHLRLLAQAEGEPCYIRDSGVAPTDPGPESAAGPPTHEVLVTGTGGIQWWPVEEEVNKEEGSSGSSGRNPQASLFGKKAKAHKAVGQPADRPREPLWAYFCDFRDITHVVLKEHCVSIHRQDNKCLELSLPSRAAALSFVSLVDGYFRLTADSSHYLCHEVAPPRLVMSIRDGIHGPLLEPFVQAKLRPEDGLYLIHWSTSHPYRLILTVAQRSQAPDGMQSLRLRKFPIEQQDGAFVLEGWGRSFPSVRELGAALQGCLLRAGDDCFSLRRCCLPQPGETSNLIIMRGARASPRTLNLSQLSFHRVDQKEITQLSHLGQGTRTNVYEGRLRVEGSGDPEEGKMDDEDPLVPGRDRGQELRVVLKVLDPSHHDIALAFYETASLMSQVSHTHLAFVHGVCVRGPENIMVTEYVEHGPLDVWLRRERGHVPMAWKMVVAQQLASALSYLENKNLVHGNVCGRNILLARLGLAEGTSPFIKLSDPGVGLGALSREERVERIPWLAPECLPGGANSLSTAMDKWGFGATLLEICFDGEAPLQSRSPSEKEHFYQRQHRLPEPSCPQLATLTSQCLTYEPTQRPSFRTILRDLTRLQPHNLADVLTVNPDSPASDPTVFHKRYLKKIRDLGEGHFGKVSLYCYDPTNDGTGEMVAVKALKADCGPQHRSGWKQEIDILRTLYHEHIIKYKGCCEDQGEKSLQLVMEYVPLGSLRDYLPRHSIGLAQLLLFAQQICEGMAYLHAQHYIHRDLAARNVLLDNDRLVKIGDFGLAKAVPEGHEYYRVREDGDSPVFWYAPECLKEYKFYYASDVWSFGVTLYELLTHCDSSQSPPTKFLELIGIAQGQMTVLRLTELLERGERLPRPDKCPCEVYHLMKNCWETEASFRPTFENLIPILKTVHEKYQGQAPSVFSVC

With `O=C(N1CCS(=O)(=O)CC1)N1C[C@H](c2ccc(OC(F)(F)F)cc2)C[C@H](c2nc(C3CC3)no2)C1` [BAY-386] the % Inhibition of Control Agonist Response (Mean n=2) [1] was -13.1%, the % of Control Agonist Response (Mean n=2) [1] was 2.5% and the residual activity [2] was 91%. For the same molecule, the residual activity [3] was 100%, the residual activity [4] was 0% and the residual activity [5] was 100%. For the same molecule, the residual activity [6] was 96%, the residual activity [7] was 96% and the residual activity [8] was 100%. The residual activity [9] was 94%, the residual activity [10] was 100% and the residual activity [11] was 100%. It also gave a residual activity [12] of 100%, a residual activity [13] of 100% and a residual activity [14] of 94%. It also gave a residual activity [15] of 82%, a residual activity [16] of 100% and a residual activity [17] of 100%. The residual activity [18] was 94%, the residual activity [19] was 100% and the residual activity [20] was 100%. For the same molecule, the residual activity [21] was 100%, the residual activity [22] was 100% and the residual activity [23] was 100%. It also gave a residual activity [24] of 83%, a residual activity [25] of 100% and a residual activity [26] of 100%. The residual activity [27] was 100%, the residual activity [28] was 98% and the residual activity [29] was 100%. It also gave a residual activity [30] of 100%, a residual activity [31] of 99% and a residual activity [32] of 100%. The residual activity [33] was 94%, the residual activity [34] was 98% and the residual activity [35] was 100%. For the same molecule, the residual activity [36] was 100%, the residual activity [37] was 100% and the inhibition [38] was 17.1%. The inhibition [39] was -6.71% and the inhibition [40] was -4.72%.
Work on `Cc1noc([C@H]2C[C@@H](c3ccc(C(F)(F)F)cc3)CN(C(=O)N3CCS(=O)(=O)C3)C2)n1` [BAY-448] yielded a % Inhibition of Control Agonist Response (Mean n=2) [1] of 12.2%, a % of Control Agonist Response (Mean n=2) [1] of 19.2% and a residual activity [2] of 100%. For the same molecule, the residual activity [3] was 100%, the residual activity [4] was 92% and the residual activity [5] was 89%. The residual activity [6] was 100%, the residual activity [7] was 100% and the residual activity [8] was 100%. For the same molecule, the residual activity [9] was 100%, the residual activity [10] was 91% and the residual activity [11] was 96%. It also gave a residual activity [12] of 62%, a residual activity [13] of 100% and a residual activity [14] of 85%. For the same molecule, the residual activity [15] was 77%, the residual activity [16] was 100% and the residual activity [17] was 100%. The residual activity [18] was 100%, the residual activity [19] was 78% and the residual activity [20] was 86%. It also gave a residual activity [21] of 100%, a residual activity [22] of 100% and a residual activity [23] of 80%. It also gave a residual activity [24] of 100%, a residual activity [25] of 91% and a residual activity [26] of 100%. The residual activity [27] was 82%, the residual activity [28] was 88% and the residual activity [29] was 100%. It also gave a residual activity [30] of 100%, a residual activity [31] of 100% and a residual activity [32] of 100%. The residual activity [33] was 100%, the residual activity [34] was 100% and the residual activity [35] was 90%. It also gave a residual activity [36] of 86%, a residual activity [37] of 87% and an inhibition [38] of 16.8%. The inhibition [39] was 5.78% and the inhibition [40] was -2.74%.
